Here are results for 16 molecules from patent US12234230B2, “Substituted benzyl-triazole compounds for Cbl-b inhibition, and further uses thereof” (Nurix Therapeutics, Inc., priority 2019, dated 2025).

One assay concerns the target Cbl-b (Homo sapiens (Human), UniProt Q13191). In words: Cbl-b displacement assay (Cbl-b inhibition assay), Biological Example 1. The format is binding. The procedure: The ability of candidate compounds to displace a known inhibitor and thereby inhibit Cbl-b activity was measured by monitoring the interaction of Cbl-b with a fluorophore-labeled probe in the presence of the candidate compound.
Following the one hour incubation, the plates were read for TR-FRET signal at 520/620 nm using an Envision plate reader (Perkin Elmer).

Assay [1] relates to primary human total T-cells. The assay is described as follows: Primary human total T-cell activation (IL-2 secretion, CD25 surface staining), Biological Example 2. The following applies: fold change over baseline; for CD25 staining CD3/CD28 0.3 μM / IL-2 secretion CD3/CD28 0.3 μM: 0.3 μM inhibitor; for CD25 staining CD3/CD28 0.3 μM / IL-2 secretion CD3/CD28 0.3 μM / CD25 staining CD3/CD28 1 μM / IL-2 secretion CD3/CD28 1 μM: anti-CD3 and anti-CD28 co-stimulation; for CD25 staining CD3/CD28 1 μM / IL-2 secretion CD3/CD28 1 μM / CD25 staining CD3 1 μM / IL-2 secretion CD3 1 μM: 1 μM inhibitor; for CD25 staining CD3 1 μM / IL-2 secretion CD3 1 μM / CD25 staining CD3 3 μM / IL-2 secretion CD3 3 μM: anti-CD3 stimulation alone; for CD25 staining CD3 3 μM / IL-2 secretion CD3 3 μM: 3 μM inhibitor.

The mark [2] stands for this setting: 0.125 nM Cbl-b final concentration (Low), read-out: Cbl-b activity IC50 (Low).
Where [3] appears, read: read-out: IC50 values in the Cbl-b inhibition assay of Biological Example 1.
Setting [4] is: 0.5 nM Cbl-b final concentration (High), read-out: Cbl-b activity IC50 (High).

Structures are written as SMILES. Like-named read-outs stand apart in the source and are kept apart here.

Sequence of Cbl-b (Q13191 36-427): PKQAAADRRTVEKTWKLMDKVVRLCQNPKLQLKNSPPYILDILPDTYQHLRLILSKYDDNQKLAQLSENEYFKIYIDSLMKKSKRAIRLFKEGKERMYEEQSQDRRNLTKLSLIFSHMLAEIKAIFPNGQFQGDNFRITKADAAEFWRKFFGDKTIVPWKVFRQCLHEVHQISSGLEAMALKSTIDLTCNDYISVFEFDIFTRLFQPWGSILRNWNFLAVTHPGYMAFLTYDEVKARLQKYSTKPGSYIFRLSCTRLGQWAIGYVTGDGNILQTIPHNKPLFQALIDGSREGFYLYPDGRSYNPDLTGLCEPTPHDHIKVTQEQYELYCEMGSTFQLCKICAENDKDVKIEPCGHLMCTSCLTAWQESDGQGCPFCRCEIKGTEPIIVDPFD

With `Cc1cc(C(=O)Nc2cccc([C@]3(c4nncn4C)C[C@@H](C)C3)c2)nc(C2CC2)n1` [Compound 21, 2-cyclopropyl-6-methyl-N-{3-[(1r,3s)-3-methyl-1-(4-methyl-1,2,4-triazol-3-yl)cyclobutyl]phenyl}pyrimidine-4-carboxamide], on Cbl-b (setting [2]), the IC50 fell in the range of 20 to 100 nM. In assay [1], the “CD25 staining CD3/CD28 0.3 μM” value is “B (B indicates 1.24-1.39 fold)”, the “IL-2 secretion CD3/CD28 0.3 μM” value is “C (C indicates <20 fold)”, the “CD25 staining CD3/CD28 1 μM” value was “B (B indicates 1.24-1.39 fold)” and the “IL-2 secretion CD3/CD28 1 μM” value is “C (C indicates <20 fold)”. Besides, in assay [1], the “CD25 staining CD3 1 μM” value is “B (B indicates 1.5-2.5 fold)”, the “IL-2 secretion CD3 1 μM” value was “B (B indicates 0.70-1.1 fold)”, the “CD25 staining CD3 3 μM” value is recorded as “B (B indicates 1.5-2.5 fold)” and the “IL-2 secretion CD3 3 μM” value is recorded as “B (B indicates 0.70-1.1 fold)”.

Turning to `C[C@@H]1CN(C(C)(C)c2cc3c(c(C(F)(F)F)c2)CN(c2cccc(C4(c5nncn5C)CC5(CC5)C4)c2)C3=O)CCO1` [Compound 45, (R)-2-(3-(5-(4-methyl-4H-1,2,4-triazol-3-yl)spiro[2.3]hexan-5-yl)phenyl)-6-(2-(2-methylmorpholino)propan-2-yl)-4-(trifluoromethyl)isoindolin-1-one], at Cbl-b (setting [2]), the IC50 was under 5 nM. In assay [1], the “CD25 staining CD3/CD28 0.3 μM” value was “B (B indicates 1.24-1.39 fold)”, the “IL-2 secretion CD3/CD28 0.3 μM” value was “B (B indicates 20-35 fold)”, the “IL-2 secretion CD3/CD28 1 μM” value was “B (B indicates 20-35 fold)” and the “CD25 staining CD3 1 μM” value is on record as “A (A indicates >2.5 fold)”. In addition, in assay [1], the “IL-2 secretion CD3 1 μM” value is reported as “A (A indicates >1.1 fold)”, the “CD25 staining CD3 3 μM” value is “A (A indicates >2.5 fold)” and the “IL-2 secretion CD3 3 μM” value was “A (A indicates >1.1 fold)”.

With `Cn1cnnc1C(C)(c1cccc(N2Cc3c(cccc3C(F)(F)F)C2=O)c1)C1CCC1` (stereo not shown) [Compound 18, 2-(3-(1-cyclobutyl-1-(4-methyl-4H-1,2,4-triazol-3-yl)ethyl)phenyl)-4-(trifluoromethyl)isoindolin-1-one], the IC50 at Cbl-b (setting [2]) was over 100 nM. Besides, the IC50 on Cbl-b (setting [3]) is over 100 nM. In assay [1], the “CD25 staining CD3/CD28 0.3 μM” value is “B (B indicates 1.24-1.39 fold)”, the “IL-2 secretion CD3/CD28 0.3 μM” value is recorded as “C (C indicates <20 fold)”, the “CD25 staining CD3/CD28 1 μM” value is on record as “B (B indicates 1.24-1.39 fold)” and the “IL-2 secretion CD3/CD28 1 μM” value was “C (C indicates <20 fold)”. Also, in assay [1], the “CD25 staining CD3 1 μM” value is reported as “B (B indicates 1.5-2.5 fold)”, the “IL-2 secretion CD3 1 μM” value is given as “C (C indicates <0.70 fold)”, the “CD25 staining CD3 3 μM” value is “A (A indicates >2.5 fold)” and the “IL-2 secretion CD3 3 μM” value was “C (C indicates <0.70 fold)”.

Regarding `CO[C@H]1C[C@](c2cccc(N3Cc4c(cc(CN5CCC[C@H](C)C5)cc4C(F)(F)F)C3=O)c2)(c2nncn2C)C1` [Compound 37, 2-(3-((1r,3S)-3-methoxy-1-(4-methyl-4H-1,2,4-triazol-3-yl)cyclobutyl)phenyl)-6-(((S)-3-methylpiperidin-1-yl)methyl)-4-(trifluoromethyl)isoindolin-1-one], at Cbl-b (setting [2]), the 50% inhibitory concentration (IC50) was under 5 nM. Besides, in assay [1], the “CD25 staining CD3/CD28 0.3 μM” value was “B (B indicates 1.24-1.39 fold)”, the “IL-2 secretion CD3/CD28 0.3 μM” value was “B (B indicates 20-35 fold)”, the “IL-2 secretion CD3/CD28 1 μM” value is reported as “B (B indicates 20-35 fold)” and the “CD25 staining CD3 1 μM” value was “A (A indicates >2.5 fold)”. Moreover, in assay [1], the “IL-2 secretion CD3 1 μM” value is “A (A indicates >1.1 fold)”, the “CD25 staining CD3 3 μM” value is reported as “A (A indicates >2.5 fold)” and the “IL-2 secretion CD3 3 μM” value is listed as “B (B indicates 0.70-1.1 fold)”.

Consider `C[C@H]1CCCN(Cc2cc3c(c(C(F)(F)F)c2)CN(c2cccc([C@]4(c5nncn5C)C[C@H](O)C4)c2)C3=O)C1` [Compound 35, 2-(3-((1r,3S)-3-hydroxy-1-(4-methyl-4H-1,2,4-triazol-3-yl)cyclobutyl)phenyl)-6-(((S)-3-methylpiperidin-1-yl)methyl)-4-(trifluoromethyl)isoindolin-1-one], for which, on Cbl-b (setting [2]), the IC50 is under 5 nM. Further, in assay [1], the “CD25 staining CD3/CD28 0.3 μM” value was “B (B indicates 1.24-1.39 fold)”, the “IL-2 secretion CD3/CD28 0.3 μM” value is reported as “B (B indicates 20-35 fold)”, the “CD25 staining CD3/CD28 1 μM” value is on record as “B (B indicates 1.24-1.39 fold)” and the “IL-2 secretion CD3/CD28 1 μM” value is reported as “B (B indicates 20-35 fold)”. In addition, in assay [1], the “CD25 staining CD3 1 μM” value is reported as “A (A indicates >2.5 fold)”, the “IL-2 secretion CD3 1 μM” value is “B (B indicates 0.70-1.1 fold)”, the “CD25 staining CD3 3 μM” value is listed as “A (A indicates >2.5 fold)” and the “IL-2 secretion CD3 3 μM” value is listed as “B (B indicates 0.70-1.1 fold)”.

On to `Cc1cc(C(=O)Nc2cccc([C@@H](c3nncn3C)C3CCC3)c2)nc(C2CC2)n1` [Compound 12, (S)—N-(3-(cyclobutyl(4-methyl-4H-1,2,4-triazol-3-yl)methyl)phenyl)-2-cyclopropyl-6-methylpyrimidine-4-carboxamide], for which, on Cbl-b (setting [4]), the 50% inhibitory concentration (IC50) was over 100 nM. Also, in assay [1], the “IL-2 secretion CD3/CD28 0.3 μM” value is on record as “C (C indicates <20 fold)”, the “IL-2 secretion CD3/CD28 1 μM” value was “C (C indicates <20 fold)”, the “CD25 staining CD3 1 μM” value is “C (C indicates <1.5 fold)” and the “CD25 staining CD3 3 μM” value is given as “C (C indicates <1.5 fold)”.

`C[C@@H]1CN(Cc2cc3c(c(C(F)(F)F)c2)CN(c2cccc([C@]4(c5nncn5C)C[C@@H](C)C4)c2)C3=O)CCO1` [Compound 24, 2-(3-((1s,3S)-3-methyl-1-(4-methyl-4H-1,2,4-triazol-3-yl)cyclobutyl)phenyl)-6-(((R)-2-methylmorpholino)methyl)-4-(trifluoromethyl)isoindolin-1-one]: the 50% inhibitory concentration (IC50) on Cbl-b (setting [2]) fell in the range of 20 to 100 nM. For the same molecule, in assay [1], the “IL-2 secretion CD3/CD28 0.3 μM” value is recorded as “C (C indicates <20 fold)”, the “IL-2 secretion CD3/CD28 1 μM” value was “C (C indicates <20 fold)”, the “CD25 staining CD3 1 μM” value was “C (C indicates <1.5 fold)” and the “IL-2 secretion CD3 1 μM” value is reported as “C (C indicates <0.70 fold)”. Also, in assay [1], the “CD25 staining CD3 3 μM” value is reported as “C (C indicates <1.5 fold)” and the “IL-2 secretion CD3 3 μM” value is listed as “C (C indicates <0.70 fold)”.

Regarding `Cn1cnnc1C1(c2cccc(N3Cc4c(cccc4C(F)(F)F)C3=O)c2)CCCC1` [Compound 11, 2-(3-(1-(4-methyl-4H-1,2,4-triazol-3-yl)cyclopentyl)phenyl)-4-(trifluoromethyl)isoindolin-1-one], the IC50 on Cbl-b (setting [4]) is over 100 nM. For the same molecule, in assay [1], the “IL-2 secretion CD3/CD28 0.3 μM” value is listed as “C (C indicates <20 fold)”, the “IL-2 secretion CD3/CD28 1 μM” value is “C (C indicates <20 fold)”, the “CD25 staining CD3 1 μM” value is reported as “C (C indicates <1.5 fold)” and the “CD25 staining CD3 3 μM” value is recorded as “C (C indicates <1.5 fold)”.

For `Cn1cnnc1C(c1cccc(N2Cc3c(cccc3C(F)(F)F)C2=O)c1)C1COC1` (stereo not shown) [Compound 7, 2-(3-((4-methyl-4H-1,2,4-triazol-3-yl)(oxetan-3-yl)methyl)phenyl)-4-(trifluoromethyl)isoindolin-1-one], the IC50 on Cbl-b (setting [2]) and at Cbl-b (setting [3]) was over 100 nM each time.

As for `Cn1cnnc1[C@]1(c2cccc(N3Cc4c(cc(CN5CCO[C@H](CC#N)C5)cc4C(F)(F)F)C3=O)c2)C[C@H](C)C1` [Compound 30, 2-((R)-4-((2-(3-((1s,3S)-3-methyl-1-(4-methyl-4H-1,2,4-triazol-3-yl)cyclobutyl)phenyl)-3-oxo-7-(trifluoromethyl)isoindolin-5-yl)methyl)morpholin-2-yl)acetonitrile], the IC50 at Cbl-b (setting [2]) lay in the range of 5 to 20 nM.

Take `Cn1cnnc1[C@H](c1cccc(N2Cc3c(cccc3C(F)(F)F)C2=O)c1)C1CCC1` [Compound 9, (S)-2-(3-(cyclobutyl(4-methyl-4H-1,2,4-triazol-3-yl)methyl)phenyl)-4-(trifluoromethyl)isoindolin-1-one]: the 50% inhibitory concentration (IC50) on Cbl-b (setting [4]) was over 100 nM.

Turning to `C[C@H]1CCCN(Cc2cc3c(c(C(F)(F)F)c2)CN(c2cccc([C@@H](c4nncn4C)C4CCC4)c2)C3=O)C1` [Compound 4, 2-(3-((S)-cyclobutyl(4-methyl-4H-1,2,4-triazol-3-yl)methyl)phenyl)-6-(((S)-3-methylpiperidin-1-yl)methyl)-4-(trifluoromethyl)isoindolin-1-one], the IC50 on Cbl-b (setting [2]) was under 5 nM; at Cbl-b (setting [3]) it was at most 5 nM.

Consider `CC[C@@H]1CN(Cc2cc3c(c(C(F)(F)F)c2)CN(c2cccc([C@]4(c5nncn5C)C[C@@H](C)C4)c2)C3=O)CCO1` [Compound 28, 6-(((R)-2-ethylmorpholino)methyl)-2-(3-((1s,3S)-3-methyl-1-(4-methyl-4H-1,2,4-triazol-3-yl)cyclobutyl)phenyl)-4-(trifluoromethyl)isoindolin-1-one], for which, at Cbl-b (setting [2]), the IC50 is 5 to 20 nM.

In the case of `Cn1cnnc1[C@@H](c1cccc(N2Cc3c(cccc3C(F)(F)F)C2=O)c1)C1CCC1` [Compound 8, (R)-2-(3-(cyclobutyl(4-methyl-4H-1,2,4-triazol-3-yl)methyl)phenyl)-4-(trifluoromethyl)isoindolin-1-one], the half-maximal inhibitory concentration (IC50) on Cbl-b (setting [4]) and at Cbl-b (setting [3]) was 5 to 20 nM in each case.

Turning to `Cn1cnnc1C1(c2cccc(N3Cc4c(cccc4C(F)(F)F)C3=O)c2)CCOC1` (stereo not shown) [Compound 10, 2-(3-(3-(4-methyl-4H-1,2,4-triazol-3-yl)tetrahydrofuran-3-yl)phenyl)-4-(trifluoromethyl)isoindolin-1-one], on Cbl-b (setting [2]), the 50% inhibitory concentration (IC50) was over 100 nM.

On to `C[C@H]1CCCN(Cc2cc3c(c(C4CC4)n2)CN(c2cccc([C@@H](c4nncn4C)C4CCC4)c2)C3=O)C1` [Compound 6, 2-(3-((S)-cyclobutyl(4-methyl-4H-1,2,4-triazol-3-yl)methyl)phenyl)-4-cyclopropyl-6-(((S)-3-methylpiperidin-1-yl)methyl)-2,3-dihydro-1H-pyrrolo[3,4-c]pyridin-1-one], for which the IC50 at Cbl-b (setting [2]) and at Cbl-b (setting [3]) was 20 to 100 nM each time.
